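A five-concentration, 48-hour dose response in 96-well plates underlies each endpoint, interpolated linearly between surrounding concentrations. GI50: concentration for 50% inhibition of growth. TGI: concentration producing complete growth inhibition.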
Columns and labels:
Assay in all cases: NCI tumour cell line growth inhibition, 48 h; in the data active = GI50 below about 0.43 µM; inactive = the rest
[1] = system: SK-MEL-2 melanoma
[2] = system: SF-539 CNS
[3] = system: BT-549 breast
[4] = system: UACC-62 melanoma
[5] = system: NCI-H460 lung
[6] = system: LOX IMVI melanoma
[7] = system: CAKI-1 renal
[8] = system: NCI-H522 lung
[9] = system: SNB-75 CNS
[10] = system: NCI-H23 lung
[11] = system: HCC-2998 colon
[12] = system: NCI/ADR-RES ovarian
[13] = system: U251 CNS
[14] = system: OVCAR-4 ovarian
[15] = system: MDA-MB-231 breast
[16] = system: OVCAR-8 ovarian
[17] = system: SF-295 CNS
[18] = system: ACHN renal
[19] = system: SF-268 CNS
[20] = system: MCF7 breast
[21] = system: TK-10 renal
[22] = system: SNB-19 CNS
[23] = system: PC-3 prostate
[24] = system: DU-145 prostate
[25] = system: KM12 colon
[26] = system: HCT-116 colon
[27] = system: CCRF-CEM leukemia
[28] = system: SN12C renal
[29] = system: MDA-MB-435
[30] = system: RPMI-8226 leukemia
[31] = system: K-562 leukemia
[32] = system: SW-620 colon
[33] = system: MOLT-4 leukemia
[34] = system: 786-0 renal
[35] = system: SK-MEL-5 melanoma
[36] = system: A549 NSCLC
[37] = system: OVCAR-3 ovarian
[38] = system: SK-MEL-28 melanoma
[39] = system: SK-OV-3 ovarian
[40] = system: HOP-92 NSCLC
[41] = system: UO-31 renal
[42] = system: EKVX NSCLC
[43] = system: HOP-62 NSCLC
[44] = system: T-47D breast
[45] = system: HT29 colon
[46] = system: M14 melanoma
[47] = system: HCT-15 colon

[N-]=[N+]=NCCCn1c2c(c3cc4c(cc3c1=O)OCO4)C(=O)c1ccccc1-2
> 100 µM: TGI [1] | TGI [2] | TGI [3] | TGI [4] | TGI [5] | TGI [6] | TGI [7] | TGI [8] | TGI [9] | TGI [10] | TGI [11] | TGI [12] | TGI [13] | TGI [14] | TGI [15] | TGI [17] | TGI [19] | TGI [20] | TGI [21] | TGI [22] | TGI [23] | TGI [24] | TGI [25] | TGI [26] | TGI [27] | TGI [28] | TGI [29] | TGI [30] | TGI [31] | TGI [32] | TGI [34] | TGI [36] | TGI [37] | TGI [38] | TGI [39] | TGI [40] | TGI [41] | TGI [42] | TGI [43] | TGI [44] | TGI [45] | TGI [46] | TGI [47]
31.3 µM: TGI [35]
86 µM: TGI [18]
87.3 µM: TGI [16]
inactive: GI50 [1] 91.1 µM | GI50 [2] > 100 µM | GI50 [3] > 100 µM | GI50 [4] 87.3 µM | GI50 [5] 62.8 µM | GI50 [6] 13.5 µM | GI50 [7] 89.1 µM | GI50 [8] 75 µM | GI50 [9] 72.8 µM | GI50 [10] 42.8 µM | GI50 [11] > 100 µM | GI50 [12] > 100 µM | GI50 [13] > 100 µM | GI50 [14] > 100 µM | GI50 [15] > 100 µM | GI50 [16] 21.6 µM | GI50 [17] 32.4 µM | GI50 [18] 13.1 µM | GI50 [19] > 100 µM | GI50 [20] 7.5 µM | GI50 [21] 42.6 µM | GI50 [22] > 100 µM | GI50 [23] > 100 µM | GI50 [24] 17.5 µM | GI50 [25] > 100 µM | GI50 [26] 40.1 µM | GI50 [27] 39.2 µM | GI50 [28] > 100 µM | GI50 [29] 10.3 µM | GI50 [30] > 100 µM | GI50 [31] 28.7 µM | GI50 [32] > 100 µM | GI50 [34] 67.7 µM | GI50 [35] 3.52 µM | GI50 [36] 93.5 µM | GI50 [37] 71.9 µM | GI50 [38] > 100 µM | GI50 [39] > 100 µM | GI50 [40] 64.2 µM | GI50 [41] > 100 µM | GI50 [42] > 100 µM | GI50 [43] 39 µM | GI50 [44] > 100 µM | GI50 [45] > 100 µM | GI50 [46] 43 µM | GI50 [47] > 100 µM
13.7 µM: TGI [33]
active: GI50 [33] 0.0905 µM

From PubChem BioAssay (NCI)
